Test results from ChEMBL document CHEMBL3885861, “Open TG-GATES”.

Organism: Rattus norvegicus
Experiment: Open TG-GATES - Regimen: Daily Repeat
Assay type: toxicity, organism-based, Sprague-Dawley
Parameters: regimen Daily Repeat, gender Male, age 6 weeks
Conditions: in vivo, po, route gavage; for APTT / Bas / Eos / Fbg / Hb / Lym / MCH / MCHC / MCV / Mono / Neu / PT / Plat / RBC / Ret / WBC: tissue Blood; for KIDNEY_L / KIDNEY_R / KIDNEY_TOTAL: tissue Kidney; for LIVER: tissue Liver; for ALP / ALT / AST / BUN / CRE / Ca / Cl / DBIL / GLC / IP / K / LDH / Na / PL / RALB / TBIL / TC / TG / TP / gamma-GTP: tissue Plasma
[1] = 0 mg/kg, 72 h, dose level Control, time 3 day
[2] = 0 mg/kg, […], dose level Control, time 7 day
[3] = 0 mg/kg, […], dose level Control, time 14 day
[4] = 0 mg/kg, […], dose level Control, time 28 day
[5] = 2 mg/kg, 72 h, dose level Low, time 3 day
[6] = 2 mg/kg, […], dose level Low, time 7 day
[7] = 2 mg/kg, […], dose level Low, time 14 day
[8] = 2 mg/kg, […], dose level Low, time 28 day

OCCN1CCN(CCCN2c3ccccc3Sc3ccc(C(F)(F)F)cc32)CC1 [FLUPHENAZINE]
TERMINAL_BW [1]: 233.9 g
APTT [1]: 16.9 s
Bas [1]: 0%
Eos [1]: 1%
Fbg [1]: 232.5 mg/dL
Hb [1]: 13.6 g/dL
Lym [1]: 77%
MCH [1]: 21.5 pg
MCHC [1]: 33.3%
MCV [1]: 64.4 fL
Mono [1]: 7.2%
Neu [1]: 15%
PT [1]: 12 s
Plat [1]: 126.3 x10_4/uL
RBC [1]: 632.2 x10_4/ul
Ret [1]: 6.2%
WBC [1]: 99.4 x10_2/uL
KIDNEY_L [1]: 1.1 g
KIDNEY_R [1]: 1.1 g
KIDNEY_TOTAL [1]: 2.2 g
LIVER [1]: 11.9 g
ALP [1]: 922 IU/L
ALT [1]: 35.2 IU/L
AST [1]: 60.2 IU/L
BUN [1]: 17.2 mg/dL
CRE [1]: 0.6 mg/dL
Ca [1]: 10.8 mg/dL
Cl [1]: 104.5 meq/L
DBIL [1]: 0.035 mg/dL
GLC [1]: 185 mg/dL
IP [1]: 8.5 mg/dL
K [1]: 4.9 meq/L
LDH [1]: 77.2 IU/L
Na [1]: 137.8 meq/L
PL [1]: 163 mg/dL
RALB [1]: 4 g/dL
TBIL [1]: 0.3 mg/dL
TC [1]: 86.2 mg/dL
TG [1]: 96.8 mg/dL
TP [1]: 5.8 g/dL
gamma-GTP [1]: 0.5 IU/L
TERMINAL_BW [2]: 262.6 g
TERMINAL_BW [3]: 300.9 g
TERMINAL_BW [4]: 402.6 g
APTT [2]: 16.3 s
Bas [2]: 0%
Eos [2]: 1%
Fbg [2]: 239.4 mg/dL
Hb [2]: 13.5 g/dL
Lym [2]: 80.6%
MCH [2]: 21.6 pg
MCHC [2]: 33.5%
MCV [2]: 64.4 fL
Mono [2]: 4%
Neu [2]: 15.2%
PT [2]: 11.9 s
Plat [2]: 114.7 x10_4/uL
RBC [2]: 627.6 x10_4/ul
Ret [2]: 5.2%
WBC [2]: 114 x10_2/uL
APTT [3]: 17.2 s
Bas [3]: 0%
Eos [3]: 0.6%
Fbg [3]: 235.6 mg/dL
Hb [3]: 14.2 g/dL
Lym [3]: 82.8%
MCH [3]: 20.3 pg
MCHC [3]: 33.3%
MCV [3]: 61.1 fL
Mono [3]: 5.4%
Neu [3]: 11%
PT [3]: 11.7 s
Plat [3]: 107.2 x10_4/uL
RBC [3]: 699.2 x10_4/ul
Ret [3]: 3.7%
WBC [3]: 145.4 x10_2/uL
APTT [4]: 17.2 s
Bas [4]: 0%
Eos [4]: 1%
Fbg [4]: 231 mg/dL
Hb [4]: 15.2 g/dL
Lym [4]: 84.8%
MCH [4]: 19.7 pg
MCHC [4]: 33.4%
MCV [4]: 58.8 fL
Mono [4]: 4.8%
Neu [4]: 9.8%
PT [4]: 11.8 s
Plat [4]: 92.5 x10_4/uL
RBC [4]: 774 x10_4/ul
Ret [4]: 2.7%
WBC [4]: 160.8 x10_2/uL
KIDNEY_L [2]: 1.2 g
KIDNEY_R [2]: 1.2 g
KIDNEY_TOTAL [2]: 2.3 g
KIDNEY_L [3]: 1.2 g
KIDNEY_R [3]: 1.2 g
KIDNEY_TOTAL [3]: 2.4 g
KIDNEY_L [4]: 1.5 g
KIDNEY_R [4]: 1.5 g
KIDNEY_TOTAL [4]: 2.9 g
LIVER [2]: 13.1 g
LIVER [3]: 13.9 g
LIVER [4]: 17.1 g
ALP [2]: 774.2 IU/L
ALT [2]: 30.4 IU/L
AST [2]: 61.6 IU/L
BUN [2]: 18.4 mg/dL
CRE [2]: 0.5 mg/dL
Ca [2]: 10.5 mg/dL
Cl [2]: 106.2 meq/L
DBIL [2]: 0.016 mg/dL
GLC [2]: 196.2 mg/dL
IP [2]: 8.4 mg/dL
K [2]: 4.6 meq/L
LDH [2]: 82.6 IU/L
Na [2]: 138.8 meq/L
PL [2]: 156 mg/dL
RALB [2]: 3.9 g/dL
TBIL [2]: 0.3 mg/dL
TC [2]: 79.4 mg/dL
TG [2]: 101 mg/dL
TP [2]: 5.9 g/dL
gamma-GTP [2]: 1.6 IU/L
ALP [3]: 734.4 IU/L
ALT [3]: 30.6 IU/L
AST [3]: 55.8 IU/L
BUN [3]: 19.8 mg/dL
CRE [3]: 0.5 mg/dL
Ca [3]: 11 mg/dL
Cl [3]: 102.6 meq/L
DBIL [3]: 0 mg/dL
GLC [3]: 186.6 mg/dL
IP [3]: 8.5 mg/dL
K [3]: 4.5 meq/L
LDH [3]: 97.4 IU/L
Na [3]: 135.8 meq/L
PL [3]: 166 mg/dL
RALB [3]: 4.2 g/dL
TBIL [3]: 0.3 mg/dL
TC [3]: 77 mg/dL
TG [3]: 181.8 mg/dL
TP [3]: 6.2 g/dL
gamma-GTP [3]: 1.4 IU/L
ALP [4]: 649.8 IU/L
ALT [4]: 32.2 IU/L
AST [4]: 57 IU/L
BUN [4]: 20.6 mg/dL
CRE [4]: 0.6 mg/dL
Ca [4]: 10.8 mg/dL
Cl [4]: 104.8 meq/L
DBIL [4]: 0.01 mg/dL
GLC [4]: 197.4 mg/dL
IP [4]: 7 mg/dL
K [4]: 4.5 meq/L
LDH [4]: 80 IU/L
Na [4]: 140.8 meq/L
PL [4]: 171.6 mg/dL
RALB [4]: 4.1 g/dL
TBIL [4]: 0.3 mg/dL
TC [4]: 74.6 mg/dL
TG [4]: 216 mg/dL
TP [4]: 6.4 g/dL
gamma-GTP [4]: 1 IU/L
TERMINAL_BW [5]: 226 g
APTT [5]: 16.5 s
Bas [5]: 0%
Eos [5]: 1%
Fbg [5]: 221.4 mg/dL
Hb [5]: 13.7 g/dL
Lym [5]: 80%
MCH [5]: 22.3 pg
MCHC [5]: 33.6%
MCV [5]: 66.3 fL
Mono [5]: 6.8%
Neu [5]: 12.6%
PT [5]: 12.2 s
Plat [5]: 101.3 x10_4/uL
RBC [5]: 613 x10_4/ul
Ret [5]: 5.3%
WBC [5]: 100.9 x10_2/uL
KIDNEY_L [5]: 1 g
KIDNEY_R [5]: 1 g
KIDNEY_TOTAL [5]: 2 g
LIVER [5]: 11.4 g
ALP [5]: 869.2 IU/L
ALT [5]: 36 IU/L
AST [5]: 69.6 IU/L
BUN [5]: 20.4 mg/dL
CRE [5]: 0.5 mg/dL
Ca [5]: 11 mg/dL
Cl [5]: 104.6 meq/L
DBIL [5]: 0.008 mg/dL
GLC [5]: 194.6 mg/dL
IP [5]: 8.5 mg/dL
K [5]: 4.8 meq/L
LDH [5]: 156.6 IU/L
Na [5]: 137.6 meq/L
PL [5]: 172.8 mg/dL
RALB [5]: 4.1 g/dL
TBIL [5]: 0.3 mg/dL
TC [5]: 85.2 mg/dL
TG [5]: 95 mg/dL
TP [5]: 5.9 g/dL
gamma-GTP [5]: 0.6 IU/L
TERMINAL_BW [6]: 257.2 g
TERMINAL_BW [7]: 299.4 g
TERMINAL_BW [8]: 362.5 g
APTT [6]: 16.8 s
Bas [6]: 0%
Eos [6]: 0.8%
Fbg [6]: 219.6 mg/dL
Hb [6]: 13.7 g/dL
Lym [6]: 83%
MCH [6]: 21 pg
MCHC [6]: 33.6%
MCV [6]: 62.5 fL
Mono [6]: 3%
Neu [6]: 13.2%
PT [6]: 12.1 s
Plat [6]: 103.7 x10_4/uL
RBC [6]: 652.6 x10_4/ul
Ret [6]: 4.5%
WBC [6]: 106.2 x10_2/uL
APTT [7]: 16.8 s
Bas [7]: 0%
Eos [7]: 0.4%
Fbg [7]: 223.2 mg/dL
Hb [7]: 14.3 g/dL
Lym [7]: 83.2%
MCH [7]: 20.6 pg
MCHC [7]: 33.5%
MCV [7]: 61.4 fL
Mono [7]: 5.4%
Neu [7]: 11%
PT [7]: 11.9 s
Plat [7]: 108 x10_4/uL
RBC [7]: 696 x10_4/ul
Ret [7]: 3%
WBC [7]: 149.6 x10_2/uL
APTT [8]: 17.2 s
Bas [8]: 0%
Eos [8]: 1%
Fbg [8]: 211.6 mg/dL
Hb [8]: 14.9 g/dL
Lym [8]: 84%
MCH [8]: 19.3 pg
MCHC [8]: 33.4%
MCV [8]: 57.7 fL
Mono [8]: 3.6%
Neu [8]: 11.8%
PT [8]: 12.1 s
Plat [8]: 95.6 x10_4/uL
RBC [8]: 775.2 x10_4/ul
Ret [8]: 2.4%
WBC [8]: 160.4 x10_2/uL
KIDNEY_L [6]: 1.1 g
KIDNEY_R [6]: 1.1 g
KIDNEY_TOTAL [6]: 2.2 g
KIDNEY_L [7]: 1.2 g
KIDNEY_R [7]: 1.1 g
KIDNEY_TOTAL [7]: 2.3 g
KIDNEY_L [8]: 1.3 g
KIDNEY_R [8]: 1.3 g
KIDNEY_TOTAL [8]: 2.6 g
LIVER [6]: 12.4 g
LIVER [7]: 13.5 g
LIVER [8]: 15.3 g
ALP [6]: 761.6 IU/L
ALT [6]: 30.4 IU/L
AST [6]: 60.4 IU/L
BUN [6]: 18.8 mg/dL
CRE [6]: 0.5 mg/dL
Ca [6]: 10.4 mg/dL
Cl [6]: 105.2 meq/L
DBIL [6]: 0.004 mg/dL
GLC [6]: 187.6 mg/dL
IP [6]: 7.9 mg/dL
K [6]: 4.7 meq/L
LDH [6]: 83.6 IU/L
Na [6]: 137.6 meq/L
PL [6]: 157.6 mg/dL
RALB [6]: 4 g/dL
TBIL [6]: 0.3 mg/dL
TC [6]: 74 mg/dL
TG [6]: 146.6 mg/dL
TP [6]: 5.9 g/dL
gamma-GTP [6]: 1.4 IU/L
ALP [7]: 728.4 IU/L
ALT [7]: 28 IU/L
AST [7]: 56.6 IU/L
BUN [7]: 19.6 mg/dL
CRE [7]: 0.6 mg/dL
Ca [7]: 10.8 mg/dL
Cl [7]: 103.4 meq/L
DBIL [7]: 0 mg/dL
GLC [7]: 179.4 mg/dL
IP [7]: 7.7 mg/dL
K [7]: 4.4 meq/L
LDH [7]: 92.4 IU/L
Na [7]: 135.2 meq/L
PL [7]: 147.8 mg/dL
RALB [7]: 4.1 g/dL
TBIL [7]: 0.2 mg/dL
TC [7]: 66.8 mg/dL
TG [7]: 160.2 mg/dL
TP [7]: 6 g/dL
gamma-GTP [7]: 1 IU/L
ALP [8]: 528.8 IU/L
ALT [8]: 29.6 IU/L
AST [8]: 59.6 IU/L
BUN [8]: 19.8 mg/dL
CRE [8]: 0.6 mg/dL
Ca [8]: 10.5 mg/dL
Cl [8]: 106.8 meq/L
DBIL [8]: 0.002 mg/dL
GLC [8]: 179.2 mg/dL
IP [8]: 6.6 mg/dL
K [8]: 4.4 meq/L
LDH [8]: 79.6 IU/L
Na [8]: 139.8 meq/L
PL [8]: 151.4 mg/dL
RALB [8]: 4.1 g/dL
TBIL [8]: 0.2 mg/dL
TC [8]: 73.2 mg/dL
TG [8]: 131 mg/dL
TP [8]: 6.3 g/dL
gamma-GTP [8]: 2 IU/L
